Measurements published in ChEMBL document CHEMBL4417622, “New steroid inhibitors of pgp for use for inhibiting multidrug resistance” (2012).
Active and inactive are the calls of the source. No cut-off for these calls is given here.

How the values were obtained:
[1] = target: T1, Nuclear receptor subfamily 1 group I member 2 (Homo sapiens, UniProt O75469); test: Activation of human PXR at 10 nM to 10 uM; type: ADME; conditions: 0.01 µM
T1 sequence (O75469 whole entry): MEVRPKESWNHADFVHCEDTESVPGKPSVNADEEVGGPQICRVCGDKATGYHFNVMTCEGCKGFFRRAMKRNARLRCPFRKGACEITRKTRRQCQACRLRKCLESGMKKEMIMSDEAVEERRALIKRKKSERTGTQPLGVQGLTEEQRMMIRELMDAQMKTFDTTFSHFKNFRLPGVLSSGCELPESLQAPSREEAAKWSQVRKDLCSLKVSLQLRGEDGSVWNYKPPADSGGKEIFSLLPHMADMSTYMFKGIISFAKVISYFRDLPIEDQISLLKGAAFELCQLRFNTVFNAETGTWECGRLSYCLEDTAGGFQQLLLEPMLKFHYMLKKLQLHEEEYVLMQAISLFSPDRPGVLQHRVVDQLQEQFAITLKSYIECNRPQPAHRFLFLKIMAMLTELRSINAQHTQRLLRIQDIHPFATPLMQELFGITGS

Progesterone receptor = target: T2, Progesterone receptor (Homo sapiens, UniProt P06401); test: Displacement of [3H]ORG2058 from progesterone receptor in human breast carcinoma cytosol at 0.5 to 3.5 uM by liquid scintillation counting based DCC competitive binding assay
T2 sequence (P06401 whole entry): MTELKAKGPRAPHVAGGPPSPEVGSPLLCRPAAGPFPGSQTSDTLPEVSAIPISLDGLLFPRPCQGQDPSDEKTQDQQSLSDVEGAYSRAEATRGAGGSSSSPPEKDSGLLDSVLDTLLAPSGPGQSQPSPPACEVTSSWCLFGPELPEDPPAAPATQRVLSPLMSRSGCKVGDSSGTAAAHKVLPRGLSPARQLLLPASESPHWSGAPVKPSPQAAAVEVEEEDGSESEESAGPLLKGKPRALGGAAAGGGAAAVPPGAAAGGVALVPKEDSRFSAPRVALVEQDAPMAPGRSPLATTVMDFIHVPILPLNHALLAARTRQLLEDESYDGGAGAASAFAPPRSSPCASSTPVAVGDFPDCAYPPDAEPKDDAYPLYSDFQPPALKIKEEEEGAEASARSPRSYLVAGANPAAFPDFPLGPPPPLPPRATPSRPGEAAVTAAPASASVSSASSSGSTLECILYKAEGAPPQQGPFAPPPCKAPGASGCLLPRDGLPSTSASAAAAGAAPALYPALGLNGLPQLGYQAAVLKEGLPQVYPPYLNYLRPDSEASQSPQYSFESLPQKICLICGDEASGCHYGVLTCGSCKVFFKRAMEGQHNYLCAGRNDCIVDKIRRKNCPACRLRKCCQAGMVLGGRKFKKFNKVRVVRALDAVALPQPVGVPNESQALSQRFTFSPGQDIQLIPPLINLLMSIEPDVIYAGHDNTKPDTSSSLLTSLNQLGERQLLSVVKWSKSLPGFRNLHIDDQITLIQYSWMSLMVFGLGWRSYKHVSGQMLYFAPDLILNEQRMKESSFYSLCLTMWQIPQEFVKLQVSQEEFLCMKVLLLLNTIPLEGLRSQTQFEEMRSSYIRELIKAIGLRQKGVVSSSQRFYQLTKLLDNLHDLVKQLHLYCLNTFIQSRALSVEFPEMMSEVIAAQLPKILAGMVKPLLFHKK

NCI-H295R [2] = test: Potentiation of doxorubicin-induced antitumor activity against human NCI-H295R cells xenografted in SCID mouse assessed as reduction in tumor volume at 10 mg/kg co-treated with 1.5 mg/kg doxorubicin after 40 days post dose; type: functional, organism-based
P-gp (ABCB1) = P-gp (ABCB1) (Homo sapiens, UniProt P08183); test: Inhibition of P-gp in human K562/R7 cells assessed as daunorubicin accumulation at 10 uM incubated fro 1 hr by flow cytometry relative to cyclosporine A; type: cell-based; conditions: probe daunorubicin, read-out: Activity
Chain of P-gp (ABCB1) (P08183 whole entry): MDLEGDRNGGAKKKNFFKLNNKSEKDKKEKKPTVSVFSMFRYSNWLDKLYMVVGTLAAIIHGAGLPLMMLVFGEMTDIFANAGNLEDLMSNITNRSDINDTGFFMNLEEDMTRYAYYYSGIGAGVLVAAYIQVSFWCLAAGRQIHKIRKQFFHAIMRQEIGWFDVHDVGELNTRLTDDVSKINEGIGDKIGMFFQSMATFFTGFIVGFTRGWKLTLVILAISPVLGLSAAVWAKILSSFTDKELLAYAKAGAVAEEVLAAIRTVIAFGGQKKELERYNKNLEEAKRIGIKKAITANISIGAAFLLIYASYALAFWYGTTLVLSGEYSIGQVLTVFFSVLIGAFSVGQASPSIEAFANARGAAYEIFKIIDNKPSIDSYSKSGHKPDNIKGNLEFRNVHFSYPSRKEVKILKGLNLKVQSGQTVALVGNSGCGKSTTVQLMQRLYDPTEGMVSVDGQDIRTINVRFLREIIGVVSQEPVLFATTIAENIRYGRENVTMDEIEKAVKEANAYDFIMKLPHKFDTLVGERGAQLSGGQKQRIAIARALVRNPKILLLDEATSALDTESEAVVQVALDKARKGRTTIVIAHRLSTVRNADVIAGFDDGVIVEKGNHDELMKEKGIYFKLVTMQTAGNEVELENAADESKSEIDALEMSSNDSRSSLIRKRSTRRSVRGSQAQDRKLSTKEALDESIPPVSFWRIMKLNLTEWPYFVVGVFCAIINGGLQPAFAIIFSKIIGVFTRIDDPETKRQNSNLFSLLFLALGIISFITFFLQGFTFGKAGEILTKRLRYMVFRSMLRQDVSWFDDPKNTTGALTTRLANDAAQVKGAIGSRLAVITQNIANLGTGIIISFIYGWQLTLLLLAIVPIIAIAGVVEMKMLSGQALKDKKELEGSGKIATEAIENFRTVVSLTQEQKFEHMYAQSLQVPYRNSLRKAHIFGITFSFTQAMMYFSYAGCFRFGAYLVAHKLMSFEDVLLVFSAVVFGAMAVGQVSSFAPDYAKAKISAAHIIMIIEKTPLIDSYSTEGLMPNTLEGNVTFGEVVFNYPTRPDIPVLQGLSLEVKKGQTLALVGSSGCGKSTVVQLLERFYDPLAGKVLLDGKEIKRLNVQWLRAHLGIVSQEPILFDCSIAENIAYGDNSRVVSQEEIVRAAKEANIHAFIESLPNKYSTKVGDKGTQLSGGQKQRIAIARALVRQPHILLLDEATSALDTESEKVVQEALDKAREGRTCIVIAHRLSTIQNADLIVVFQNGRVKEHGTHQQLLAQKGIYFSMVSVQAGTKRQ

K562/R7 [3] = test: Potentiation of doxorubicin-induced antitumor activity against human K562/R7 cells xenografted in SCID mouse assessed as reduction in tumor volume at 10 mg/kg co-treated with 1.5 mg/kg doxorubicin after 40 days post dose; type: functional, organism-based
K562/R7 [4] = test: Potentiation of doxorubicin-induced antitumor activity against human K562/R7 cells xenografted in SCID mouse assessed as reduction in tumor volume at 10 mg/kg co-treated with 1.5 mg/kg doxorubicin measured up to 80 days; type: functional, organism-based
NCI-H295R [5] = test: Potentiation of doxorubicin-induced antitumor activity against human NCI-H295R cells xenografted in SCID mouse assessed as reduction in tumor volume at 10 mg/kg co-treated with 1.5 mg/kg doxorubicin measured up to 80 days; type: functional, organism-based

Row | SMILES | Activity [1] | Activity (Progesterone receptor) | further results
1 | CC(=O)[C@H]1CC[C@H]2[C@H]3[C@H]([C@H](OC(=O)c4ccccc4)C[C@]12C)[C@@]1(C)CCC(=O)C[C@H]1C[C@H]3OC(=O)c1ccccc1 | Not Active | Not Active | –
2 | CC(=O)[C@H]1CC[C@H]2[C@H]3[C@H]([C@H](OC(=O)c4ccccc4)C[C@]12C)[C@@]1(C)CCC(=O)C[C@H]1C[C@@H]3OC(=O)c1ccccc1 | – | Not Active | –
3 | CC(=O)[C@@]1(O[C@H]2CCCCO2)CC[C@H]2[C@@H]3CC[C@@H]4CC(=O)CC[C@]4(C)[C@H]3[C@H](O[C@H]3CCCCO3)C[C@@]21C | Not Active | Not Active | –
4 | CC(=O)[C@@]1(O[C@@H]2CCCCO2)CC[C@H]2[C@@H]3CC[C@@H]4CC(=O)CC[C@]4(C)[C@H]3[C@H](O[C@H]3CCCCO3)C[C@@]21C | Not Active | – | –
5 | CC(=O)[C@H]1CC[C@H]2[C@H]3[C@H]([C@H](O[C@@H]4CCCCO4)C[C@]12C)[C@@]1(C)CCC(=O)C[C@H]1C[C@H]3OC(=O)c1ccccc1 | Not Active | Not Active | Activity (NCI-H295R [2]): Active; inhibition at 1 h, 10 µM (P-gp (ABCB1)): 119%; Activity (K562/R7 [3]): Active; Activity (K562/R7 [4]): Active; Activity (NCI-H295R [5]): Active
6 | COC(=O)CC[C@@H](C)[C@H]1CC[C@H]2[C@@H]3[C@H](OC(=O)c4ccccc4)CC4CC(=O)CC[C@]4(C)[C@H]3C[C@H](O[C@@H]3CCCCO3)[C@]12C (single isomer, unassigned) | – | – | inhibition at 1 h, 10 µM (P-gp (ABCB1)): 79.8%
7 | CC(=O)[C@@]1(O[C@@H]2CCCCO2)CC[C@H]2[C@@H]3CC[C@@H]4CC(=O)CC[C@]4(C)[C@H]3[C@H](O[C@@H]3CCCCO3)C[C@@]21C | Not Active | – | –
8 | CC(=O)[C@H]1CC[C@H]2[C@H]3[C@H]([C@H](O[C@@H]4CCCCO4)C[C@]12C)[C@@]1(C)CCC(=O)C[C@H]1C[C@@H]3OC(=O)c1ccccc1 | Not Active | – | –
